Earlier results in US9452147B2, “Lipolytic methods” (Neothetics, Inc., priority 2005, dated 2016).

Assays:
[1] = system: thigh circumference in women; details: subcutaneous injections three to five times per week in multiple locations over the thighs
[2] = relative to albuterol 5, a short acting hydrophilic beta agonist

Row | Structure (SMILES) | thigh circumference in women [1] | times more lipophilic than albuterol 5 [2]
1 | CC(C)NCC(O)c1ccc(O)c(O)c1 (stereo not drawn) [isoproterenol] | reduce the thigh circumference | –
2 | COC(=O)[C@@H]1[C@H]2C[C@H]3c4[nH]c5ccccc5c4CCN3C[C@@H]2CC[C@@H]1O [yohimbine] | reduce the thigh circumference | –
3 | OCc1cc(C(O)CNCCCCCCOCCCCc2ccccc2)ccc1O (racemic) [salmeterol 1, ±2-(hydroxymethyl)-4-[1-hydroxy-2-[6-(4-phenylbutoxyl)hexylamino]ethyl]-phenol] | – | at least 10,000 times
